Source: patent US20060148871A1, “Metabolic stabilization of substituted adamantane” (priority 2005, published 2006)
Each block holds one molecule with its values, some of them ahead of it.

Assays:
Format in all cases: in vitro ADME
[1] = Metabolic stability screen, human liver microsomes; conditions: for HLM % turnover: 10 μM substrate, 30 min, 37° C., 1 mM NADPH
Description: (§1) Each substrate (10 μM) was incubated with microsomal protein (0.1-0.5 mg/ml) in 50 mM potassium phosphate buffer (pH 7.4) in 48-Well plate. The enzyme reaction was initiated by the addition of 1 mM NADPH, then incubated at 37° C. in a Forma Scientific incubator (Marietta, Ohio, USA) with gentle shaking. The reactions were quenched by the addition of 800 μl of ACN/MeOH (1:1, v/v), containing 0.5 μM of internal standard (IS), after 30 min incubation. Samples were then filtered by using Captiva 96-Well Filtration (Varian, Lake Forest, Calif., USA) and analyzed by LC/MS (mass spectrometry). Liver microsomal incubations were conducted in duplicate.
The parent remaining in the incubation mixture was determined by LC/MS. The LC/S system consisted of an Agilent 1100 series (Agilent Technologies, Waldbronn, Germany) and API 2000 (MDS SCIEX, Ontario, Canada). A Luna C8(2) (50×2.0 mm, particle size 3 μm, Phenomenex, Torrance, Calif., USA) was used to quantify each compound at ambient temperature. The mobile phase consisted of (A): 10 mM NH4AC (pH 3.3) and […]: 100% ACN and was delivered at a flow rate of 0.2 ml/min. Elution was achieved using a linear gradient of 0-100% B over 3 min, then held 100% B for 4 min, and returned to 100% A in 1 min. The column was equilibrated for 7 min before the next injection.
(§2) The peak area ratios (each substrate over IS) at each incubation time were expressed as the percentage of the ratios (each substrate over IS) of the control samples (0 min incubation). The parent remaining in the incubation mixture was expressed as the percentage of the values at 0 min incubation. The percentage turnover is calculated using the following equation (Y% turnover=100% […]−X% parent remaining) and is recorded as the percentage turnover in the Table 1.

[2] = Metabolic stability screen, mouse liver microsomes; conditions: 10 μM substrate, 30 min, 37° C., 1 mM NADPH
Description: as §1
(§3) The parent remaining in the incubation mixture was determined by LC/MS. […] A Luna C8(2) (50×2.0 mm, particle size 3 μm, Phenomenex, Torrance, Calif., USA) was used to quantify each compound at ambient temperature. […]
as §2

[3] = Metabolic stability screen, rat liver microsomes; conditions: 10 μM substrate, 30 min, 37° C., 1 mM NADPH
Description: as §1, §3, §2

[4] = In vitro metabolic half-life study, human liver microsomes; conditions: 1 μM
Description: (§4) Example 5 (1 μM) was incubated with microsomal protein (0.5-1.0 mg/ml) in 50 mM potassium phosphate buffer (pH 7.4). After 5 minutes, preincubation at 37° C. in a shaking water bath, the enzyme reaction was initiated by the addition of 1 mM NADPH. Aliquots (200 μl) were removed and added to 100 μl of ACN/MeOH (1:1, v/v), containing 0.5 μM of IS, at the following time points: 0, 5, 10, 15, 20 and 30 min. Samples were then centrifuged at 14000×g for 10 min and the supernatant was analyzed by LC/MS. Additionally, Example 5 (1 μM) was also incubated with hepatocytes in complete culture medium (Waymouth MB 752/1). The reaction was terminated at 0, 1, 3 and 6 hours with the addition of 250 μl of ACN/MeOH (1:1, v/v). Samples were centrifuged and the supernatant was analyzed by LC/MS as described above. […]
as §3
(§5) In vitro half-life of substrate depletion was determined and converted to hepatic intrinsic clearance (Obach R Scott: Prediction of human clearance of twenty-nine drugs from hepatic microsomal intrinsic clearance data: an examination of in vitro half-life approach and nonspecific binding to microsomes. Drug metabolism and Disposition. 1999, 27:1350-1359).

[5] = In vitro metabolic half-life study, mouse liver microsomes; conditions: 1 μM
Description: as §4, §3, §5

[6] = In vitro metabolic half-life study, rat liver microsomes; conditions: 1 μM
Description: as §4, §3, §5

[7] = In vitro metabolic half-life study, monkey liver microsomes
Description: as §4, §3, §5

[8] = In vitro metabolic half-life study, dog liver microsomes
Description: as §4, §3, §5

[9] = In vitro metabolic half-life study, human hepatocytes; conditions: 1 μM
Description: as §4, §3, §5

[10] = In vitro metabolic half-life study, mouse hepatocytes; conditions: 1 μM
Description: as §4, §3, §5

[11] = In vitro metabolic half-life study, rat hepatocytes; conditions: 1 μM
Description: as §4, §3, §5

[12] = In vitro metabolic half-life study, monkey hepatocytes; conditions: 1 μM
Description: as §4, §3, §5

[13] = In vitro metabolic half-life study, dog hepatocytes; conditions: 1 μM
Description: as §4, §3, §5

- Metabolism in human liver microsomes (HLM), in words [1]: rapidly metabolized
- HLM % turnover [1]: 68%
Structure (SMILES): O=C(NC1C2CC3CC(C2)CC1C3)C1(c2ccc(Cl)cc2)CC1 (centres unmarked) [Example 4, N-2-adamantyl-1-(4-chlorophenyl)cyclopropanecarboxamide]

- Metabolism in human liver microsomes (HLM), in words [1]: rapidly metabolized
- HLM % turnover [1]: 62%
Structure (SMILES): O=C(NC1C2CC3CC(C2)CC1C3)C1(c2ccccc2)CC1 (centres unmarked) [Example 3, N-2-adamantyl-1-phenylcyclopropanecarboxamide]

- Metabolism in human liver microsomes (HLM), in words [1]: rapidly metabolized
- HLM % turnover [1]: 83%
Structure (SMILES): CC(C)(C(=O)NC1C2CC3CC(C2)CC1C3)c1ccccc1 (centres unmarked) [Example 1, N-2-adamantyl-2-methyl-2-phenylpropanamide]

- HLM % turnover [1]: 0%
- MLM % turnover [2]: 0%
- RLM % turnover [3]: 0%
- Liver microsomal intrinsic clearance (CLint) [4]: 4.83 mL/min/kg
- Liver microsomal intrinsic clearance (CLint) [5]: 127 mL/min/kg
- Liver microsomal intrinsic clearance (CLint) [6]: 40 mL/min/kg
- Metabolic stability in liver microsomes, in words ([7]; monkey liver microsomes): excellent metabolic stability
- Liver microsomal intrinsic clearance (CLint) ([7]; monkey microsomes, 1 μM): 31.5 mL/min/kg
- Metabolic stability in liver microsomes, in words ([8]; dog liver microsomes): excellent metabolic stability
- Liver microsomal intrinsic clearance (CLint) ([8]; dog microsomes, 1 μM): 7.5 mL/min/kg
- Hepatocyte intrinsic clearance (CLint) [9]: 1.5 mL/min/kg
- Hepatocyte intrinsic clearance (CLint) [10]: 13.7 mL/min/kg
- Hepatocyte intrinsic clearance (CLint) [11]: 5.17 mL/min/kg
- Hepatocyte intrinsic clearance (CLint) [12]: 4.67 mL/min/kg
- Hepatocyte intrinsic clearance (CLint) [13]: 3.67 mL/min/kg
Structure (SMILES): CC(C)(C(=O)NC1C2CC3CC1CC(C(=O)O)(C3)C2)N1CCN(c2ccc(C(F)(F)F)cn2)CC1 (centres unmarked) [Example 5, E-4-{2-Methyl-2-[4-(5-trifluoromethyl-pyridin-2-yl)-piperazin-1-yl]-propionylamino}-adamantane-1-carboxylic acid]

- Metabolism in human liver microsomes (HLM), in words [1]: rapidly metabolized
- HLM % turnover [1]: 84%
Structure (SMILES): CC(C)(C(=O)NC1C2CC3CC(C2)CC1C3)c1ccc(Cl)cc1 (centres unmarked) [Example 2, N-2-adamantyl-2-(4-chlorophenyl)-2-methylpropanamide]
